The values that follow come from patent US20240050727A1, “DEVICES FOR FORMING IN SITU MICRONEEDLES AND METHODS THEREOF” (University of Connecticut, priority 2022, published 2024).

The subject of this test is C. albicans. Briefly: Antifungal activity in 3D culture model (C. albicans 3D fungal biofilms in CHROMagar). Format: cell-based. The conditions noted are these: for superficial regrowth of preformed fungal biofilm: t=48 h preformed biofilm, monitored for 48 hr. On the procedure: Antifungal activity. The antifungal activity was performed using an in-lab developed 3D culture model. C. Albicans was seeded at a density of 10^7 cells/mL and cultured for 48 h on CHROMagar. The 3D culture gels were treated with PBS and Caspofungin either topically or using the in-situ microneedle device and methodology. Samples were cut for in-depth imaging after 48 h of treatment and fungal inhibition was evaluated. Experiments were performed to assess the feasibility of the disclosed device in the treatment of infection. 10^6 cells/ml of C. albicans were inoculated in liquid CHROMagar™ and allowed to form 3D fungal biofilms. PBS or 32 μg/ml of Caspofungin (CPF) was applied topically and via a microneedling device immediately after the agar solidified (t=0 h) or 48 h after biofilm growth (t=48 h). The growth and distribution of C. albicans was monitored for 48 hr.

Structures are written as SMILES. “Also recorded” adds a separate entry of the source.

Regarding `CC[C@H](C)C[C@H](C)CCCCCCCCC(=O)N[C@H]1C[C@@H](O)[C@@H](NCCN)NC(=O)[C@@H]2[C@@H](O)CCN2C(=O)[C@H]([C@H](O)CCN)NC(=O)[C@H]([C@H](O)[C@@H](O)c2ccc(O)cc2)NC(=O)[C@@H]2C[C@@H](O)CN2C(=O)[C@H]([C@@H](C)O)NC1=O` [CPF, Caspofungin], the “3D growth of fungal biofilm (fluorescence images of slices)” value (32 μg/ml CPF administered by drop) is recorded as “reduced the 3D growth” and the “3D growth of fungal biofilm (fluorescence images of slices)” value (32 μg/ml CPF administered by microneedle system) is “reduced the 3D growth”. In addition, the “superficial regrowth of preformed fungal biofilm” value was “not able to regrow on the surface; also recorded: prevention of superficial growth” (32 μg/ml CPF applied topically via drop) and “not able to regrow on the surface; also recorded: prevention of superficial growth” (32 μg/ml CPF applied via microneedle system). Also, the “fungal biofilm 3D growth at t=48 h” value (32 μg/ml CPF, microneedling system vs drop, applied 48 h after biofilm growth) is given as “effective in reducing the fungal biofilm growth only when administered via the microneedling system; also recorded: reduced only when CPF was administered via microneedles”. The “overall biofilm thickness and biofilm growth at depth (calcofluor fluorescence signal)” value (CPF, microneedle delivery) was “reduces the overall biofilm thickness and biofilm growth at depths lower than 1 mm”.
